Here are results for 28 molecules from patent publication US12570666B2, “Furoindazole derivatives” (Bayer Aktiengesellschaft, priority 2019, dated 2026).

One may read the IC50 as the concentration at which inhibition is half-maximal.

In the experiment the target is T1, human GPR84 receptor (Homo sapiens, UniProt Q9NQS5).
T1 construct: frozen aliquots prepared by acCELLerate; host or cells: CHO-K1
T1 sequence (Q9NQS5 whole entry): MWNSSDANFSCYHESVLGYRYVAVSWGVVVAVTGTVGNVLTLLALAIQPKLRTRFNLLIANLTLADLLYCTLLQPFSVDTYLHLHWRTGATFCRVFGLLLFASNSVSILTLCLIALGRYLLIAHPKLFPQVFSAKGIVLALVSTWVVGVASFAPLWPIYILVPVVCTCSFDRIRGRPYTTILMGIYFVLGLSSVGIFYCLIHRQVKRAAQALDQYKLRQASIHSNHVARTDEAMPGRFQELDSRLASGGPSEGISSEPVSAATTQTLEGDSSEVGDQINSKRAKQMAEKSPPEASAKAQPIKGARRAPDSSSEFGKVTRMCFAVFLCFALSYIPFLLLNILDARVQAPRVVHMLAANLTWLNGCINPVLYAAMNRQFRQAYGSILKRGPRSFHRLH
Kind of experiment: cAMP HTRF assay for identification of cellular GPR84 antagonists. It is filed as cell-based. The settings on record: CHO-K1 cells stably expressing human GPR84; Forskolin + agonist 6-OAU (EC80); average or median values. An excerpt:
cAMP HTRF® Assay for Identification of Cellular GPR84 Antagonists
By using a Homogenous Time-Resolved Fluorescence (HTRF®) based assay (#62AM5PEJ, Cisbio, Condolet, France) the inhibition of the Gi-coupled GPR84 receptor can be detected. CHO-K1 cells stably expressing human GPR84 receptor (purchased from DiscoveRx, now Eurofins) were used and treated with Forskolin (F6886, Sigma, Germany) to stimulate membrane adenylyl cyclases and thereby unspecific cAMP formation. Activation of the Gi-coupled GPR84 by a natural or small molecule agonist (e.g. 6-n-octyl aminouracile, inhouse) results in inhibition of cellular cAMP formation which can be released again by antagonists to this receptor. Detection and quantification of cellular cAMP levels in this HTRF assay is achieved by interaction between a fluorescent cAMP tracer (cAMP-d2) and an Eu-cryptate labelled anti-cAMP antibody. Following excitation at 337 nm this pairing allows for the generation of a fluorescence resonance energy transfer (FRET) between the partners and results in FRET induced emissions at 665 nm and 620 nm, the latter representing background signal by Eu-cryptate labelled anti-cAMP antibody. Maximal signal is obtained in the absence of any cellular cAMP (no competition for the binding of the tracer to the antibody). Given the combination of the Gi coupling properties of GPR84 and the competitive nature of the detection system agonist treatment should result in an increase in the HTRF signal due to lowered cAMP levels. Any signal decrease in the presence of Forskolin, agonist and compound is indicative of antagonist mediated abrogation of GPR84 signalling.
For the assay, frozen aliquots of CHO-K1 cells expressing hGPR84 (prepared by acCELLerate, Hamburg, Germany) were thawed and a cell suspension (1.67E+06 cells/mL) in assay media (Ham's F12 Nutrient Mix, Thermo Fisher Scientific, Waltham, USA; 5% fetal calf serum, Biomol, Hamburg, Germany) containing cAMP-d2 (dilution 1:20, supplied with the kit #62AM5PEJ, Cisbio, Condolet, France) was prepared. After recovery of cells for 20 minutes at 37° C., 3 μL/well cell suspension including cAMP-d2 were added to a pre-dispensed assay plate (Greiner Bio-One, Kremsmuenster, Austria) containing 50 nl/well test compound in 100% DMSO or 100% DMSO as control. This was followed by a 30 minutes incubation step at room temperature. […] The reaction was stopped by addition of 3 μL/well lysis buffer containing cAMP Eu-Cryptate antibody (dilution 1:20) (both supplied with the kit #62AM5PEJ, Cisbio, Condolet, France). To enable complete lysis, plates were incubated for 60 minutes at room temperature before measurement in an HTRF reader, e.g. a PHERAstar (BMG Labtech, Ortenberg, Germany).
From the fluorescence emissions at 665 nm (FRET) and at 620 nm (background signal of Eu-cryptate) the ratio (emission at 665 nm divided by emission at 620 nm×10000) was calculated and the data were normalized (reaction without test compound, only 100% DMSO=0% inhibition; all other assay components except agonist=100% inhibition). For dose response testing on the same microtiter plate, compounds were tested at 11 different concentrations in the range of 20 μM to 0.07 nM (20 μM, 5.7 μM, 1.6 μM, 0.47 μM, 0.13 μM, 38 nM, 11 nM, 3.1 nM, 0.89 nM, 0.25 and 0.07 nM; dilution series prepared before the assay at the level of the 100-fold conc. stock solutions by serial 1:3.5 dilutions in 100% DMSO) in duplicate values for each concentration. IC50 values were calculated by 4-parameter fitting using a commercial software package (Genedata Screener, Basel, Switzerland).
Examples were tested in selected biological assays one or more times. […]
(TR-FRET usually uses a lanthanide donor and a delayed reading to cut background.)
On to `Cc1c(C(=O)NC[C@@H]2COCCO2)oc2c1-c1nn(C[C@H]3COCCO3)cc1C(C(F)(F)F)C2` (mixture of isomers) [Example 265, (4±)-N-{[(2R)-1,4-dioxan-2-yl]methyl}-2-{[(2S)-1,4-dioxan-2-yl]methyl}-8-methyl-4-(trifluoromethyl)-4,5-dihydro-2H-furo[2,3-g]indazole-7-carboxamide], for which the IC50 stood at 238 nM. Consider `Cc1c(C(=O)NC[C@@H]2CCCO2)oc2c1-c1nn(C[C@H]3COCCO3)cc1C(C(F)(F)F)C2` (mixture of isomers) [Example 266, (4±)-2-{[(2S)-1,4-dioxan-2-yl]methyl}-8-methyl-N-{[(2S)-oxolan-2-yl]methyl}-4-(trifluoromethyl)-4,5-dihydro-2H-furo[2,3-g]indazole-7-carboxamide], for which the IC50 came out at 607 nM. To `Cc1c(C(=O)NC[C@@H]2CCCO2)oc2c1-c1nn(C(C)c3ccccn3)cc1CC2` (mixture of isomers) [Example 317, 8-methyl-N-{[(2S)-oxolan-2-yl]methyl}-2-[(1±)-1-(pyridin-2-yl)ethyl]-4,5-dihydro-2H-furo[2,3-g]indazole-7-carboxamide] belongs 578 nM; to `Cc1c(C(=O)NCC2CCCO2)oc2c1-c1nn(Cc3ccccn3)cc1CC2` (racemic) [Example 3, 8-methyl-2-(pyridin-2-ylmethyl)-N-[(2R/S)-tetrahydrofuran-2-ylmethyl]-4,5-dihydro-2H-furo[2,3-g]indazole-7-carboxamide], 240 nM. The value for `Cc1c(C(=O)NCC2COc3ncccc3O2)oc2c1-c1nn(Cc3ccccn3)cc1CC2` (racemic) [Example 9, N-[(2R/S)-2,3-dihydro[1,4]dioxino[2,3-b]pyridin-2-ylmethyl]-8-methyl-2-(pyridin-2-ylmethyl)-4,5-dihydro-2H-furo[2,3-g]indazole-7-carboxamide] was 190 nM; that for `Cc1c(C(=O)N2CCCC2CN)oc2c1-c1nn(Cc3ccccn3)cc1CC2` (racemic) [Example 30, [(2R/S)-2-(aminomethyl)pyrrolidin-1-yl][8-methyl-2-(pyridin-2-ylmethyl)-4,5-dihydro-2H-furo[2,3-g]indazol-7-yl]methanone] was 3570 nM. The value for `Cc1c(C(=O)NCC2CCO2)oc2c1-c1nn(Cc3ccccn3)cc1CC2` (racemic) [Example 35, 8-methyl-N-[(2R/S)-oxetan-2-ylmethyl]-2-(pyridin-2-ylmethyl)-4,5-dihydro-2H-furo[2,3-g]indazole-7-carboxamide] was 470 nM. Consider `Cc1c(C(=O)NCC2CN(C)CCO2)oc2c1-c1nn(Cc3ccccn3)cc1CC2` (racemic) [Example 38, 8-methyl-N-{[(2R/S)-4-methylmorpholin-2-yl]methyl}-2-(pyridin-2-ylmethyl)-4,5-dihydro-2H-furo[2,3-g]indazole-7-carboxamide], for which the IC50 amounted to 700 nM.

On to `Cc1c(C(=O)NCC2CCC(=O)O2)oc2c1-c1nn(Cc3ccccn3)cc1CC2` (racemic) [Example 39, 8-methyl-N-{[(2R/S)-5-oxotetrahydrofuran-2-yl]methyl}-2-(pyridin-2-ylmethyl)-4,5-dihydro-2H-furo[2,3-g]indazole-7-carboxamide], for which the IC50 came out at 960 nM.

For `Cc1c(C(=O)NCc2cc(C3CC3)on2)oc2c1-c1nn(CC3COc4ncccc4O3)cc1CC2` (racemic) [Example 50, N-[(5-cyclopropyl-1,2-oxazol-3-yl)methyl]-2-[(2R/S)-2,3-dihydro[1,4]dioxino[2,3-b]pyridin-2-ylmethyl]-8-methyl-4,5-dihydro-2H-furo[2,3-g]indazole-7-carboxamide], the IC50 worked out at 35 nM. To `Cc1c(C(=O)NC[C@H]2CCCO2)oc2c1-c1nn(C[C@@H]3COc4ncccc4O3)cc1CC2` (racemic) [Example 51, 2-[(2R/S)-2,3-dihydro[1,4]dioxino[2,3-b]pyridin-2-ylmethyl]-8-methyl-N-[(2R/S)-tetrahydrofuran-2-ylmethyl]-4,5-dihydro-2H-furo[2,3-g]indazole-7-carboxamide] belongs 56 nM; to `Cc1c(C(=O)NCCN2CCN(C)CC2)oc2c1-c1nn(CC3COc4ncccc4O3)cc1CC2` (racemic) [Example 54, 2-[(2R/S)-2,3-dihydro[1,4]dioxino[2,3-b]pyridin-2-ylmethyl]-8-methyl-N-[2-(4-methylpiperazin-1-yl)ethyl]-4,5-dihydro-2H-furo[2,3-g]indazole-7-carboxamide], 550 nM; to `Cc1c(C(=O)NCc2ccon2)oc2c1-c1nn(CC3COc4ncccc4O3)cc1CC2` (racemic) [Example 55, 2-[(2R/S)-2,3-dihydro[1,4]dioxino[2,3-b]pyridin-2-ylmethyl]-8-methyl-N-(1,2-oxazol-3-ylmethyl)-4,5-dihydro-2H-furo[2,3-g]indazole-7-carboxamide], 49 nM. To `Cc1cccc(Cn2cc3c(n2)-c2c(oc(C(=O)NCC4CCCO4)c2C)CC3)n1` (racemic) [Example 66, 8-methyl-2-[(6-methylpyridin-2-yl)methyl]-N-[(2R/S)-tetrahydrofuran-2-ylmethyl]-4,5-dihydro-2H-furo[2,3-g]indazole-7-carboxamide] belongs 160 nM. The value for `Cc1cccc(Cn2cc3c(n2)-c2c(oc(C(=O)NCC4COc5ncccc5O4)c2C)CC3)n1` (racemic) [Example 70, N-[(2R/S)-2,3-dihydro[1,4]dioxino[2,3-b]pyridin-2-ylmethyl]-8-methyl-2-[(6-methylpyridin-2-yl)methyl]-4,5-dihydro-2H-furo[2,3-g]indazole-7-carboxamide] was 77 nM; that for `Cc1c(C(=O)NCC2CCC(C)(C)O2)oc2c1-c1nn(Cc3ccccn3)cc1CC2` (racemic) [Example 170] was 30 nM. For the molecule `Cc1c(C(=O)NCC2CCCCO2)oc2c1-c1nn(Cc3ccccn3)cc1CC2` (racemic) [Example 172], the IC50 turned out to be 12000 nM. The value for `Cc1c(C(=O)NCC2(C)CCCO2)oc2c1-c1nn(Cc3ccccn3)cc1CC2` (racemic) [Example 173] was 7070 nM; that for `Cc1c(C(=O)NCC2CC(F)(F)CO2)oc2c1-c1nn(Cc3ccccn3)cc1CC2` (racemic) [Example 174] was 97 nM. To `Cc1c(C(=O)NC[C@H]2OCC[C@H]2C)oc2c1-c1nn(Cc3ccccn3)cc1CC2` (racemic) [Example 177] belongs 2600 nM; to `Cc1c(C(=O)NCC2CC3(CC3)CO2)oc2c1-c1nn(Cc3ccccn3)cc1CC2` (racemic) [Example 178], 92 nM; to `Cc1c(C(=O)NCC2OCCC2(C)C)oc2c1-c1nn(Cc3ccccn3)cc1CC2` (racemic) [Example 179], 6410 nM. `Cc1c(C(=O)NCC2CCC3(COC3)O2)oc2c1-c1nn(Cc3ccccn3)cc1CC2` (racemic) [Example 180]: the IC50 amounted to 210 nM.

In the case of `Cc1c(C(=O)NCC2COCC(C)(C)O2)oc2c1-c1nn(Cc3ccccn3)cc1CC2` (racemic) [Example 181], the concentration for half-maximal inhibition (IC50) is 102 nM. The value for `Cc1c(C(=O)NCC2CCO2)oc2c1-c1nn(Cc3ccccn3)cc1CC2` (single isomer, unassigned) [Example 35-1] was 180 nM; that for `Cc1c(C(=O)NCC2CCO2)oc2c1-c1nn(Cc3ccccn3)cc1CC2` (single isomer, unassigned) [Example 35-2] was 770 nM; that for `Cc1c(C(=O)NCC2CN(C)CCO2)oc2c1-c1nn(Cc3ccccn3)cc1CC2` (single isomer, unassigned) [Example 38-1] was 1420 nM.

On to `Cc1c(C(=O)NCC2CN(C)CCO2)oc2c1-c1nn(Cc3ccccn3)cc1CC2` (single isomer, unassigned) [Example 38-2], for which the IC50 came to 3520 nM.
